Experimental data published in ChEMBL document CHEMBL3045943, “Novel N-aryl(alkaryl)-2-[(3-R-2-oxo-2H-[1,2,4]triazino[2,3-c]quinazoline-6-yl)thio]acetamides: synthesis, cytotoxicity, anticancer activity, COMPARE analysis and docking” (2013).

Tests used:
Assay type in all cases: functional
[1] = tested on: NCI-H522; test: Cytotoxicity against Homo sapiens (human) NCI-H522 cells assessed as cell growth at 10 uM after 48 hr by SRB assay relative to control; conditions: NCI-H522, 48 h, read-out: Activity
[2] = tested on: Photobacterium leiognathi; test: Growth inhibition of Photobacterium leiognathi Sh1 assessed as bio-luminescence at 0.1 mg/ml after 16 to 18 hr by chronic action test relative to control; design: scale not given: the % may be the effect or the level left
[3] = tested on: Photobacterium leiognathi; test: Growth inhibition of Photobacterium leiognathi Sh1 assessed as bio-luminescence at 0.025 mg/ml after 16 to 18 hr by chronic action test relative to control; design: scale not given: the % may be the effect or the level left
[4] = tested on: Photobacterium leiognathi; test: Growth inhibition of Photobacterium leiognathi Sh1 assessed as bio-luminescence at 0.1 mg/ml after 10 min by acute action test relative to control; design: scale not given: the % may be the effect or the level left
[5] = tested on: Photobacterium leiognathi; test: Growth inhibition of Photobacterium leiognathi Sh1 assessed as bio-luminescence at 0.025 mg/ml after 10 min by acute action test relative to control; design: scale not given: the % may be the effect or the level left
[6] = tested on: SR; test: Cytotoxicity against Homo sapiens (human) SR cells assessed as cell growth at 10 uM after 48 hr by SRB assay relative to control; conditions: read-out: Activity
[7] = tested on: Photobacterium leiognathi; test: Growth inhibition of Photobacterium leiognathi Sh1 assessed as bio-luminescence at 0.25 mg/ml after 10 min by acute action test relative to control; design: scale not given: the % may be the effect or the level left
[8] = tested on: Photobacterium leiognathi; test: Growth inhibition of Photobacterium leiognathi Sh1 assessed as bio-luminescence at 0.25 mg/ml after 16 to 18 hr by chronic action test relative to control; design: scale not given: the % may be the effect or the level left
[9] = tested on: MOLT-4; test: Cytotoxicity against Homo sapiens (human) MOLT4 cells assessed as cell growth at 10 uM after 48 hr by SRB assay relative to control; conditions: MOLT-4, 48 h, read-out: Activity
[10] = tested on: UO-31; test: Cytotoxicity against Homo sapiens (human) UO31 cells assessed as cell growth at 10 uM after 48 hr by SRB assay relative to control; conditions: UO-31, 48 h, read-out: Activity
[11] = tested on: K562; test: Cytotoxicity against Homo sapiens (human) K562 cells assessed as cell growth at 10 uM after 48 hr by SRB assay relative to control; conditions: K562, 48 h, read-out: Activity
[12] = tested on: LOX IMVI; test: Cytotoxicity against Homo sapiens (human) LOXIMVI cells assessed as cell growth at 10 uM after 48 hr by SRB assay relative to control; conditions: read-out: Activity
[13] = tested on: U-251; test: Cytotoxicity against Homo sapiens (human) U251 cells assessed as cell growth at 10 uM after 48 hr by SRB assay relative to control; conditions: U-251, 48 h, read-out: Activity

Structure (SMILES) | growth at 10 µM [1] | Activity [2] | Activity [3] | Activity [4] | Activity [5] | growth at 10 µM [6] | Activity [7] | Activity [8] | growth at 10 µM [9] | growth at 10 µM [10] | growth at 10 µM [11] | growth at 10 µM [12] | growth at 10 µM [13]
Cc1ccc(-c2nn3c(SCC(=O)Nc4ccccc4C(=O)O)nc4ccccc4c3nc2=O)cc1 | 78.2% | – | – | – | – | – | – | – | – | – | – | – | –
Cc1ccc(CNC(=O)CSc2nc3ccccc3c3nc(=O)c(C)nn23)cc1 | – | 212.8% | 122.2% | 100% | 88.3% | 81.8% | 128.6% | 150% | – | – | – | – | –
COc1ccccc1CNC(=O)CSc1nc2ccccc2c2nc(=O)c(C)nn12 | – | 160% | 93.3% | 110% | 89.2% | 75.6% | 139.4% | 188% | – | – | – | – | –
COc1ccc(CNC(=O)CSc2nc3ccccc3c3nc(=O)c(C)nn23)cc1 | – | 176% | 138.7% | 130% | 92.3% | 71.5% | 151.5% | 180% | – | – | – | – | –
COc1ccc(CNC(=O)CSc2nc3ccccc3c3nc(=O)c(-c4ccccc4)nn23)cc1 | – | 44.4% | 50% | 106.2% | 111.5% | – | 138.7% | 40% | 78.7% | – | – | – | –
Cc1nn2c(SCC(=O)NCc3cccc(C(F)(F)F)c3)nc3ccccc3c2nc1=O | – | 92.3% | 123.6% | 75% | 66.7% | – | 100% | 193.3% | – | 54.5% | – | – | –
O=C(CSc1nc2ccccc2c2nc(=O)c(-c3ccccc3)nn12)NCc1cccc(C(F)(F)F)c1 | – | 10.67% | 13.33% | 33.33% | 66.67% | – | 17.78% | 0% | – | – | – | – | –
Cc1nn2c(SCC(=O)NCc3ccccc3F)nc3ccccc3c2nc1=O | – | 233.3% | 130.2% | 66.7% | 116.7% | – | 170% | 200% | – | – | 77.8% | – | –
Cc1nn2c(SCC(=O)NCc3ccc(F)cc3)nc3ccccc3c2nc1=O | – | 123.1% | 118.2% | 78.8% | 77.8% | – | 91.7% | 200% | – | 61.6% | – | – | –
Cc1nn2c(SCC(=O)NCCc3ccccc3)nc3ccccc3c2nc1=O | – | 100% | 136.4% | 87.5% | 72.2% | – | 100% | 133.3% | – | 77.3% | – | – | –
O=C(CSc1nc2ccccc2c2nc(=O)c(-c3ccccc3)nn12)NCCc1ccccc1 | – | 400% | 222.2% | 121.5% | 109.5% | – | 119.4% | 57.1% | – | – | – | 61.1% | –
Cc1ccc(-c2nn3c(SCC(=O)Nc4ccc(C(F)(F)F)cc4)nc4ccccc4c3nc2=O)cc1 | – | 116.7% | 51.2% | 113.3% | 103.3% | 66% | 142.5% | 100% | – | – | – | – | –
Cc1nn2c(SCC(=O)Nc3ccccc3F)nc3ccccc3c2nc1=O | – | 196.43% | 142.86% | 73.03% | 84.27% | – | 50.56% | 142.86% | – | – | – | – | –
O=C(CSc1nc2ccccc2c2nc(=O)c(-c3ccccc3)nn12)Nc1cccc(F)c1 | – | 38.89% | 44.44% | 90.91% | 94.55% | – | 96.36% | 92.59% | – | – | – | – | –
Cc1ccc(-c2nn3c(SCC(=O)Nc4cccc(F)c4)nc4ccccc4c3nc2=O)cc1 | – | 32.93% | 69.51% | 93.48% | 97.83% | – | 65.22% | 41.46% | – | – | – | – | –
Cc1ccc(-c2nn3c(SCC(=O)Nc4ccc(F)cc4)nc4ccccc4c3nc2=O)cc1 | – | 133.33% | 250% | 36.73% | 75.51% | – | 8.16% | 166.67% | – | – | – | – | –

Structure (SMILES) | growth at 10 µM [1] | Activity [2] | Activity [3] | Activity [4] | Activity [5] | growth at 10 µM [6] | Activity [7] | Activity [8] | growth at 10 µM [9] | growth at 10 µM [10] | growth at 10 µM [11] | growth at 10 µM [12] | growth at 10 µM [13]
O=C(CSc1nc2ccccc2c2nc(=O)c(-c3ccccc3)nn12)Nc1cccc(Cl)c1 | – | 100% | 101.39% | 109.52% | 104.76% | – | 59.52% | 101.39% | – | – | – | – | –
Cc1nn2c(SCC(=O)Nc3cccc(Cl)c3)nc3ccccc3c2nc1=O | – | 250% | 185.2% | 99.1% | 99.3% | – | 104.5% | 42.9% | – | – | 57.2% | – | –
O=C(CSc1nc2ccccc2c2nc(=O)c(-c3ccccc3)nn12)Nc1ccc(Cl)cc1 | – | 212.8% | 88.9% | 120% | 100% | – | 142.9% | 87.5% | 77.5% | – | – | – | –
Cc1ccc(-c2nn3c(SCC(=O)Nc4ccc(Cl)cc4)nc4ccccc4c3nc2=O)cc1 | – | 93.75% | 75% | 63.83% | 68.09% | – | 31.91% | 37.5% | – | – | – | – | –
Cc1ccc(-c2nn3c(SCC(=O)Nc4ccccc4[N+](=O)[O-])nc4ccccc4c3nc2=O)cc1 | – | 250% | 93% | 36% | 83.3% | – | 62.5% | 50% | – | – | – | – | –
Cc1nn2c(SCC(=O)NCc3ccccc3)nc3ccccc3c2nc1=O | – | 115.4% | 72.7% | 87.5% | 66.7% | – | 91.7% | 250% | 78.5% | – | – | – | –
Cc1nn2c(SCC(=O)Nc3ccccc3)nc3ccccc3c2nc1=O | – | 61.11% | 88.89% | 98.53% | 95.59% | – | 95.59% | 57.78% | – | – | – | – | –
O=C(CSc1nc2ccccc2c2nc(=O)c(-c3ccccc3)nn12)Nc1ccccc1 | – | 83.33% | 90.28% | 78.57% | 95.24% | – | 47.62% | 80.56% | – | – | – | – | –
COc1ccc(-c2nn3c(SCC(=O)Nc4ccccc4C)nc4ccccc4c3nc2=O)cc1 | – | 94.55% | 90.91% | 82.46% | 96.49% | – | 68.42% | 94.55% | – | – | – | – | –
Cc1cccc(NC(=O)CSc2nc3ccccc3c3nc(=O)c(C)nn23)c1 | – | 178.57% | 196.43% | 98.92% | 96.77% | – | 73.12% | 14.29% | – | – | – | – | –
COc1ccccc1NC(=O)CSc1nc2ccccc2c2nc(=O)c(-c3ccccc3)nn12 | – | 11.36% | 22.73% | 63.46% | 71.15% | – | 53.85% | 18.18% | – | – | – | – | –
COc1ccc(NC(=O)CSc2nc3ccccc3c3nc(=O)c(-c4ccc(C)cc4)nn23)cc1 | 57.9% | 117% | 95.6% | 106% | 88.3% | – | 142.9% | 75% | – | – | – | – | 61.1%
Cc1nn2c(SCC(=O)Nc3ccccc3C(F)(F)F)nc3ccccc3c2nc1=O | – | 100% | 100% | 86.67% | 88.89% | – | 88.89% | 97.14% | – | – | – | – | –
O=C(CSc1nc2ccccc2c2nc(=O)c(-c3ccccc3)nn12)Nc1cccc(C(F)(F)F)c1 | – | 203.13% | 187.5% | 100% | 96.67% | – | 46.67% | 187.5% | – | – | – | – | –
CN(C)[C@@H]1C(O)=C(C(N)=O)C(=O)[C@@]2(O)C(O)=C3C(=O)c4c(O)cccc4[C@@](C)(O)[C@H]3C[C@@H]12 [TETRACYCLINE] | – | 0% | 0% | 9.1% | 80.7% | – | 0% | 0% | – | – | – | – | –
